This passage reports IC50 and Kd results from ChEMBL document CHEMBL1687887, “Evolution of potent and stable placental-growth-factor-1-targeting CovX-bodies from phage display peptide discovery” (J Med Chem, 2011).

In experiment [1] the target is T1, Placenta growth factor (Mus musculus, UniProt P49764).
T1 sequence (P49764 whole entry): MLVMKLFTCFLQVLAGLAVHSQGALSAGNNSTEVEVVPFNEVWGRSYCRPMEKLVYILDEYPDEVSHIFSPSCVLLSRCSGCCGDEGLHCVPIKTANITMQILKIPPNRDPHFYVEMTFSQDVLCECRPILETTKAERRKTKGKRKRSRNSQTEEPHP
Kind of experiment: Inhibition of mouse PlGF-VEGFR-1 interaction by ELISA. (An ELISA detects its analyte on a solid surface through an enzyme-linked reagent.)

Experiment [2] deals with T2, Placenta growth factor (Homo sapiens, UniProt P49763).
T2 sequence (P49763 whole entry): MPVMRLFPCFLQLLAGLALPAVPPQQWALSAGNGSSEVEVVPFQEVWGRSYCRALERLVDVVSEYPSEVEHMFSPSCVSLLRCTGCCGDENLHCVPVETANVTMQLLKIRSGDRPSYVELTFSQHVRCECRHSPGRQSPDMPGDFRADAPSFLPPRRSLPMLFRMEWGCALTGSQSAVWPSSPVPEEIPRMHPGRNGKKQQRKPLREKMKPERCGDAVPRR
As to the kind of experiment: Binding affinity to human PlGF-1. Conditions: read-out: Kd.

Experiment [3] has as its target T2, Placenta growth factor. As to the kind of experiment: Inhibition of human PlGF-1-VEGFR-1 interaction by ELISA.

Bridge positions count the residues as written; N and C are the ends. Square brackets hold non-standard residues; d marks the D form. Peptide text beside a SMILES is read from it. * marks the point of attachment. X1 = O=C(COCC(=O)*)Nc1ccc(CCC(=O)N2CCC2=O)cc1; Aad = N[C@@H](CCCC(=O)O)C(=O)O

A word on the IC50: it is the concentration at which inhibition is half-maximal. A word on the Kd: it is the free concentration of one partner at which half of the binding sites on the other are occupied at equilibrium, for simple one-to-one binding. For `CSCC[C@H](NC(=O)[C@@H](NC(=O)[C@H](CCCCNC(C)=O)NC(=O)[C@@H]1CSSC[C@H](NC(=O)[C@@H](NC(=O)[C@H](CC(=O)O)NC(=O)[C@H](Cc2ccccc2)NC(C)=O)C(C)C)C(=O)N[C@@H](CC(N)=O)C(=O)N[C@@H](Cc2c[nH]c3ccccc23)C(=O)N[C@@H](C(C)C)C(=O)N[C@@H]([C@@H](C)O)C(=O)N[C@@H](CC(C)C)C(=O)N[C@@H](CCCCNC(=O)COCC(=O)Nc2ccc(CCC(=O)N3CCC3=O)cc2)C(=O)N[C@@H](Cc2cnc[nH]2)C(=O)N1)C(C)C)C(N)=O` (Ac-FDVCNWVTLK(X1)HCK(Ac)VM-NH2; disulfide 4-12), the IC50 against Placenta growth factor [1] is over 1000 nM. Moreover, the Kd on Placenta growth factor [2] is over 1000 nM.

For the compound `CSCC[C@H](NC(=O)[C@@H](NC(=O)[C@H](CCCCNC(C)=O)NC(=O)[C@@H]1CSSC[C@H](NC(=O)[C@@H](NC(=O)[C@H](CC(=O)O)NC(=O)[C@H](Cc2ccccc2)NC(C)=O)C(C)C)C(=O)N[C@@H](CCCCNC(=O)COCC(=O)Nc2ccc(CCC(=O)N3CCC3=O)cc2)C(=O)N[C@@H](Cc2c[nH]c3ccccc23)C(=O)N[C@@H](C(C)C)C(=O)N[C@@H]([C@@H](C)O)C(=O)N[C@@H](CC(C)C)C(=O)N2CCC[C@H]2C(=O)N[C@@H](Cc2cnc[nH]2)C(=O)N1)C(C)C)C(N)=O` (Ac-FDVCK(X1)WVTLPHCK(Ac)VM-NH2; disulfide 4-12), at Placenta growth factor [1], the IC50 turned out to be 624 nM. For the same compound, the dissociation constant Kd on Placenta growth factor [2] worked out at 6 nM.

The compound `CSCC[C@H](NC(=O)[C@@H](NC(=O)[C@H](CCCCNC(C)=O)NC(=O)[C@@H]1CSSC[C@H](NC(=O)[C@@H](NC(=O)[C@H](CC(=O)O)NC(=O)[C@H](Cc2ccccc2)NC(C)=O)C(C)C)C(=O)N[C@@H](CC(N)=O)C(=O)N[C@@H](Cc2c[nH]c3ccccc23)C(=O)N[C@@H](C(C)C)C(=O)N[C@@H]([C@@H](C)O)C(=O)N[C@@H](CC(C)C)C(=O)N2CCC[C@H]2C(=O)N[C@@H](CCCCNC(=O)COCC(=O)Nc2ccc(CCC(=O)N3CCC3=O)cc2)C(=O)N1)C(C)C)C(N)=O` (Ac-FDVCNWVTLPK(X1)CK(Ac)VM-NH2; disulfide 4-12) had an IC50 against Placenta growth factor [1] of over 1000 nM. Besides, the Kd at Placenta growth factor [2] is over 1000 nM.

Take `CSCC[C@H](NC(=O)[C@@H](NC(=O)[C@H](CCCCN)NC(=O)[C@@H]1CSSC[C@H](NC(=O)[C@@H](NC(=O)[C@H](CC(=O)O)NC(=O)[C@H](Cc2ccccc2)NC(C)=O)C(C)C)C(=O)N[C@@H](CCCCN)C(=O)N[C@@H](Cc2c[nH]c3ccccc23)C(=O)N[C@@H](C(C)C)C(=O)N[C@@H]([C@@H](C)O)C(=O)N[C@@H](CC(C)C)C(=O)N2CCC[C@H]2C(=O)N[C@@H](Cc2cnc[nH]2)C(=O)N1)C(C)C)C(N)=O` (Ac-FDVCKWVTLPHCKVM-NH2; disulfide 4-12): the dissociation constant (Kd) at Placenta growth factor [2] amounted to 1000 nM. Half-maximal inhibition on Placenta growth factor [3] (IC50) was put at 1000 nM.

With `CSCC[C@H](NC(=O)[C@@H](NC(=O)[C@H](CCCCN)NC(=O)[C@@H]1CSSC[C@H](NC(=O)[C@@H](NC(=O)[C@H](CC(=O)O)NC(=O)[C@H](Cc2ccccc2)NC(=O)COCC(=O)Nc2ccc(CCC(=O)N3CCC3=O)cc2)C(C)C)C(=O)N[C@@H](CCCCN)C(=O)N[C@@H](Cc2c[nH]c3ccccc23)C(=O)N[C@@H](C(C)C)C(=O)N[C@@H]([C@@H](C)O)C(=O)N[C@@H](CC(C)C)C(=O)N2CCC[C@H]2C(=O)N[C@@H](Cc2cnc[nH]2)C(=O)N1)C(C)C)C(N)=O` (X1-FDVCKWVTLPHCKVM-NH2; disulfide 4-12), the Kd on Placenta growth factor [2] came to 200 nM. Half-maximal inhibition on Placenta growth factor [3] (IC50) required 1000 nM.

Compound `CC[C@H](C)[C@@H]1NC(=O)[C@H](Cc2ccc(O)cc2)NC(=O)[C@H](Cc2cnc[nH]2)NC(=O)[C@@H](NC(=O)[C@@H](NC(=O)[C@H](CCC(=O)O)NC(=O)[C@H](Cc2ccccc2)NC(C)=O)C(C)C)CSSC[C@@H](C(=O)N[C@H](C(=O)N[C@@H](CCCN=C(N)N)C(=O)N[C@@H](Cc2ccc(O)cc2)C(N)=O)[C@@H](C)O)NC(=O)[C@H](Cc2cnc[nH]2)NC(=O)[C@@H]2CCCN2C(=O)[C@H](CC(C)C)NC(=O)[C@H](CCCN=C(N)N)NC1=O` (Ac-FEVCHYIRLPHCTRY-NH2; disulfide 4-12) had an IC50 on Placenta growth factor [1] of 400 nM.

Turning to `CC[C@H](C)[C@H](NC(=O)[C@H](C)NC(=O)[C@H](CC(C)C)NC(=O)[C@@H]1CSSC[C@H](NC(=O)[C@@H](NC(=O)[C@H](CC(=O)O)NC(=O)[C@H](CC(C)C)NC(C)=O)C(C)C)C(=O)N[C@@H](CC(C)C)C(=O)N[C@@H](Cc2c[nH]c3ccccc23)C(=O)N[C@@H](C(C)C)C(=O)N[C@@H](CO)C(=O)N[C@@H](CC(C)C)C(=O)N2CCC[C@H]2C(=O)N[C@@H](Cc2cnc[nH]2)C(=O)N1)C(N)=O` (Ac-LDVCLWVSLPHCLAI-NH2; disulfide 4-12), it took 100000 nM to reach half-maximal inhibition against Placenta growth factor [3] (IC50).

Compound `CSCC[C@H](NC(=O)[C@H](CCCCN)NC(=O)[C@@H]1CSSC[C@H](NC(=O)[C@@H](NC(=O)[C@H](CC(=O)O)NC(=O)[C@H](Cc2ccccc2)NC(C)=O)C(C)C)C(=O)N[C@@H](CCCCN)C(=O)N[C@@H](Cc2c[nH]c3ccccc23)C(=O)N[C@@H](C(C)C)C(=O)N[C@@H]([C@@H](C)O)C(=O)N[C@@H](CC(C)C)C(=O)N2CCC[C@H]2C(=O)N[C@@H](Cc2cnc[nH]2)C(=O)N1)C(=O)N[C@@H](CCCC(N)=O)C(N)=O` (Ac-FDVCKWVTLPHCKM[Aad](NH2)-NH2; disulfide 4-12) yielded an IC50 at Placenta growth factor [3] of 1000 nM.

`CSCC[C@H](NC(=O)[C@@H](NC(=O)[C@H](CCCCN)NC(=O)[C@@H]1CSSC[C@H](NC(=O)[C@@H](NC(=O)[C@H](CC(=O)O)NC(=O)[C@H](Cc2ccccc2)NC(C)=O)C(C)C)C(=O)N[C@@H](CCCCN)C(=O)N[C@@H](Cc2c[nH]c3ccccc23)C(=O)N[C@@H](C(C)C)C(=O)NCC(=O)N[C@@H](CC(C)C)C(=O)N2CCC[C@H]2C(=O)N[C@@H](Cc2cnc[nH]2)C(=O)N1)C(C)C)C(N)=O` (Ac-FDVCKWVGLPHCKVM-NH2; disulfide 4-12) registered an IC50 against Placenta growth factor [3] of 6000 nM.

As for `CSCC[C@H](NC(=O)[C@@H](NC(=O)[C@H](CCCNC(=N)N)NC(=O)[C@@H]1CSSC[C@H](NC(=O)[C@@H](NC(=O)[C@H](CC(=O)O)NC(=O)[C@H](Cc2ccccc2)NC(C)=O)C(C)C)C(=O)N[C@@H](CCCCN)C(=O)N[C@@H](Cc2c[nH]c3ccccc23)C(=O)N[C@@H](C(C)C)C(=O)N[C@@H]([C@@H](C)O)C(=O)N[C@@H](CC(C)C)C(=O)N2CCC[C@H]2C(=O)N[C@@H](Cc2cnc[nH]2)C(=O)N1)C(C)C)C(N)=O` (Ac-FDVCKWVTLPHCRVM-NH2; disulfide 4-12), half-maximal inhibition against Placenta growth factor [3] (IC50) was put at 5000 nM.

`CC[C@H](C)[C@H](NC(=O)[C@@H]1CSSC[C@H](NC(=O)[C@@H](NC(=O)[C@H](CCC(N)=O)NC(=O)[C@H](Cc2c[nH]c3ccccc23)NC(C)=O)[C@@H](C)CC)C(=O)N[C@@H](CC(=O)O)C(=O)N[C@@H]([C@@H](C)CC)C(=O)N[C@@H](CC(C)C)C(=O)N[C@@H]([C@@H](C)O)C(=O)N[C@@H](CC(C)C)C(=O)N2CCC[C@H]2C(=O)N[C@@H](Cc2cnc[nH]2)C(=O)N1)C(=O)N[C@@H](Cc1ccccc1)C(=O)N[C@@H](CC(N)=O)C(N)=O` (Ac-WQICDILTLPHCIFN-NH2; disulfide 4-12) gave an IC50 on Placenta growth factor [3] of 100000 nM.

At Placenta growth factor [3], `CC[C@H](C)[C@H](NC(=O)[C@H](CC(=O)O)NC(=O)[C@H](Cc1ccc(O)cc1)NC(C)=O)C(=O)N[C@H]1CSSC[C@@H](C(=O)N[C@@H](Cc2ccccc2)C(=O)N[C@@H](C)C(=O)N[C@H](C(N)=O)C(C)C)NC(=O)[C@H](Cc2cnc[nH]2)NC(=O)[C@@H]2CCCN2C(=O)[C@H](CC(C)C)NC(=O)[C@H](CCCNC(=N)N)NC(=O)[C@H]([C@@H](C)CC)NC(=O)[C@H](Cc2ccc(O)cc2)NC(=O)[C@H](Cc2cnc[nH]2)NC1=O` (Ac-YDICHYIRLPHCFAV-NH2; disulfide 4-12) displayed an IC50 of 100000 nM.
